Patent US12180193B2, “Accelerating fibrosarcoma protein degrading compounds and associated methods of use” (Arvinas Operations, Inc., priority 2020, dated 2024)

Columns and labels:
BRAF V600E = molecular target: T1, BRAF V600E (Homo sapiens, UniProt P15056, V600E); assay: Cellular assay of target protein degradation, T-Rex 293 cells stably transfected with HA-BRAF_V600E (HA immunofluorescence, high content imaging); format: cell-based; conditions: T-Rex 293 HA-BRAF V600E; for DC50: half maximal degradation, read-out: BRaf V600E DC50; for Dmax: maximum degradation observed
T1 construct: expressed in transfected cells
In short: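 HA immunofluorescence on fixed cells, imaged by high-content reader, measured loss of HA-BRAF V600E in stably transfected T-Rex 293 cells induced with 1 ng/mL doxycycline. Compounds were applied for 24 h at 37 °C (final 0.1 nM–1 μM, 0.1% DMSO); DC50 and Dmax (% of control) were reported.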

BRAF G466V = molecular target: T2, BRAF G466V (Homo sapiens, UniProt P15056, G466V); assay: Cellular assay of target protein degradation, T-Rex 293 cells stably transfected with HA-BRAF G466V (HA immunofluorescence, high content imaging); format: cell-based; conditions: T-Rex 293 HA-BRAF G466V; for DC50: half maximal degradation, read-out: BRaf G466V DC50; for Dmax: maximum degradation observed
T2 construct: expressed in transfected cells
In short: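 HA-BRAF G466V levels were read by HA immunofluorescence and high-content imaging after 24 h compound exposure (final 30 nM–3 pM, 0.1% DMSO, 37 °C). Expression was induced with 0.75 ng/mL doxycycline. Outputs: half-maximal degradation concentration (DC50) and maximal degradation (Dmax) relative to control.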

T1 sequence (P15056 whole entry V600E): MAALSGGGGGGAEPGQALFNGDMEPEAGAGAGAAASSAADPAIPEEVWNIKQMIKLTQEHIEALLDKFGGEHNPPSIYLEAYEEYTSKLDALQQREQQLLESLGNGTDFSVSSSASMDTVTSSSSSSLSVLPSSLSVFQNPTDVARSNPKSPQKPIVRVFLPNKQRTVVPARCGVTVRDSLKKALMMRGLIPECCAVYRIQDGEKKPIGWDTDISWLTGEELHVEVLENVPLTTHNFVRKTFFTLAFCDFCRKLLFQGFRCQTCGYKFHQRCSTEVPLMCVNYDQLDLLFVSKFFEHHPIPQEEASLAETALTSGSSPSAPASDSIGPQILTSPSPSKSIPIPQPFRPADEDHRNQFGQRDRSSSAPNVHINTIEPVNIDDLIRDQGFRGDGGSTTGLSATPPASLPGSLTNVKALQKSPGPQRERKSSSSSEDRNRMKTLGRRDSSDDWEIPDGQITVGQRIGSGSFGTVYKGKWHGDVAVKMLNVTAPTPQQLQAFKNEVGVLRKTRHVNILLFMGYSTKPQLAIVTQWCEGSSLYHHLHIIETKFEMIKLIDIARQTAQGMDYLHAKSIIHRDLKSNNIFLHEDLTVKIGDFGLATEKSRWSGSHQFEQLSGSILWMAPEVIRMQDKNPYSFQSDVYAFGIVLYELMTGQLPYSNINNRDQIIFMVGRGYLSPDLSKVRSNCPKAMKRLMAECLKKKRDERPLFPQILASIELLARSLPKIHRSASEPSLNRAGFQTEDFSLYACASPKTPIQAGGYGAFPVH
T2 sequence (P15056 whole entry G466V): as the sequence (P15056 whole entry V600E) above, with G466V, E600V counted along it

SMILES: O=C1CCC(N2Cc3cc(CCOCCN4CCN(c5ccc(-c6cnc7[nH]cc(C(=O)c8c(F)ccc(NS(=O)(=O)N9CC[C@@H](F)C9)c8F)c7c6)cc5)CC4)ccc3C2=O)C(=O)N1 (stereo partly drawn) [Compound 148, (3R)-N-[3-(5-{4-[4-(2-{2-[2-(2,6-dioxopiperidin-3-yl)-1-oxo-2,3-dihydro-1H-isoindol-5-yl]ethoxy}ethyl)piperazin-1-yl]phenyl}-1H-pyrrolo[2,3-b]pyridine-3-carbonyl)-2,4-difluorophenyl]-3-fluoropyrrolidine-1-sulfonamide]
- DC50 (BRAF V600E): 5 to 50 nM
- Dmax (BRAF V600E): 35 to 70%
- DC50 (BRAF G466V): 1 to 10 nM
- Dmax (BRAF G466V): > 70%

SMILES: COc1cc(C2CCN(CC3CCN(c4ccc(-c5cnc6[nH]cc(C(=O)c7c(F)ccc(NS(=O)(=O)N8CC[C@@H](F)C8)c7F)c6c5)cc4)CC3)CC2)ccc1C(=O)NC1CCC(=O)NC1=O (stereo partly drawn) [Compound 184, 4-(1-{[1-(4-{3-[2,6-difluoro-3-({[(3R)-3-fluoropyrrolidin-1-yl]sulfonyl}amino)benzoyl]-1H-pyrrolo[2,3-b]pyridin-5-yl}phenyl)piperidin-4-yl]methyl}piperidin-4-yl)-N-(2,6-dioxopiperidin-3-yl)-2-methoxybenzamide]
- DC50 (BRAF V600E): 5 to 50 nM
- Dmax (BRAF V600E): < 35%
- DC50 (BRAF G466V): 1 to 10 nM
- Dmax (BRAF G466V): 35 to 70%

SMILES: C[C@H]1[C@H](F)CCN1S(=O)(=O)Nc1ccc(F)c(C(=O)c2c[nH]c3ncc(-c4ccc(N5CCC(CN6CCC(c7ccc8c(c7)CN([C@H]7CCC(=O)NC7=O)C8=O)CC6)CC5)cc4)cc23)c1F [Compound 270, (2S,3R)-N-{3-[5-(4-{4-[(4-{2-[(3S)-2,6-dioxopiperidin-3-yl]-1-oxo-2,3-dihydro-1H-isoindol-5-yl}piperidin-1-yl)methyl]piperidin-1-yl}phenyl)-1H-pyrrolo [2,3-b]pyridine-3-carbonyl]-2,4-difluorophenyl}-3-fluoro-2-methylpyrrolidine-1-sulfonamide]
- DC50 (BRAF V600E): 5 to 50 nM
- Dmax (BRAF V600E): 35 to 70%
- DC50 (BRAF G466V): 1 to 10 nM
- Dmax (BRAF G466V): > 70%

SMILES: O=C1CCC(N2Cc3cc(C4CCN(CC5CCN(c6cnc(-c7cnc8[nH]cc(C(=O)c9c(F)ccc(NS(=O)(=O)N%10CC[C@@H](F)C%10)c9F)c8c7)nc6)CC5)CC4)ccc3C2=O)C(=O)N1 (stereo partly drawn) [Compound 215, (3R)-N-[3-(5-{5-[4-({4-[2-(2,6-dioxopiperidin-3-yl)-1-oxo-2,3-dihydro-1H-isoindol-5-yl]piperidin-1-yl}methyl)piperidin-1-yl]pyrimidin-2-yl}-1H-pyrrolo[2,3-b]pyridine-3-carbonyl)-2,4-difluorophenyl]-3-fluoropyrrolidine-1-sulfonamide]
- DC50 (BRAF V600E): 5 to 50 nM
- Dmax (BRAF V600E): 35 to 70%
- DC50 (BRAF G466V): 1 to 10 nM
- Dmax (BRAF G466V): > 70%

SMILES: O=C1CCC(N2Cc3cc(C4CCN(CCC5CN(c6ccc(-c7cnc8[nH]cc(C(=O)c9c(F)ccc(NS(=O)(=O)N%10CC[C@@H](F)C%10)c9F)c8c7)cc6)C5)CC4)ccc3C2=O)C(=O)N1 (stereo partly drawn) [Compound 218, (3R)-N-[3-(5-{4-[3-(2-{4-[2-(2,6-dioxopiperidin-3-yl)-1-oxo-2,3-dihydro-1H-isoindol-5-yl]piperidin-1-yl}ethyl)azetidin-1-yl]phenyl}-1H-pyrrolo[2,3-b]pyridine-3-carbonyl)-2,4-difluorophenyl]-3-fluoropyrrolidine-1-sulfonamide]
- DC50 (BRAF V600E): > 500 nM
- DC50 (BRAF G466V): > 30 nM

SMILES: COc1cc(N2CC3(CN(CC4CCN(c5ccc(-c6cnc7[nH]cc(C(=O)c8c(F)ccc(NS(=O)(=O)N9CC[C@@H](F)C9)c8F)c7c6)cc5)CC4)C3)C2)ccc1C(=O)N[C@H]1CCC(=O)NC1=O [Compound 343, 4-(6-{[1-(4-{3-[2,6-difluoro-3-({[(3R)-3-fluoropyrrolidin-1-yl]sulfonyl}amino)benzoyl]-1H-pyrrolo[2,3-b]pyridin-5-yl}phenyl)piperidin-4-yl]methyl}-2,6-diazaspiro[3.3]heptan-2-yl)-N-[(3S)-2,6-dioxopiperidin-3-yl]-2-methoxybenzamide]
- DC50 (BRAF V600E): 5 to 50 nM
- Dmax (BRAF V600E): 35 to 70%
- DC50 (BRAF G466V): 1 to 10 nM
- Dmax (BRAF G466V): > 70%

SMILES: O=C1CCC(N2Cc3cc(OC4CC5(C4)CN(c4ccc(-c6cnc7[nH]cc(C(=O)c8c(F)ccc(NS(=O)(=O)N9CC[C@@H](F)C9)c8F)c7c6)cc4)C5)ccc3C2=O)C(=O)N1 (stereo partly drawn) [Compound 43, (3R)-N-(3-{5-[4-(6-{[2-(2,6-dioxopiperidin-3-yl)-1-oxo-2,3-dihydro-1H-isoindol-5-yl]oxy}-2-azaspiro[3.3]heptan-2-yl)phenyl]-1H-pyrrolo[2,3-b]pyridine-3-carbonyl}-2,4-difluorophenyl)-3-fluoropyrrolidine-1-sulfonamide]
- DC50 (BRAF V600E): 50 to 500 nM
- Dmax (BRAF V600E): 35 to 70%
- DC50 (BRAF G466V): 10 to 30 nM
- Dmax (BRAF G466V): 35 to 70%

SMILES: O=C1CC[C@H](N2Cc3cc(N4CCC(CN5CCC6(CCN(c7ccc(-c8cnc9[nH]cc(C(=O)c%10c(F)ccc(NS(=O)(=O)N%11CC[C@@H](F)C%11)c%10F)c9c8)cc7F)CC6)C5)CC4)ccc3C2=O)C(=O)N1 [Compound 258, (3R)-N-{3-[5-(4-{2-[(1-{2-[(3S)-2,6-dioxopiperidin-3-yl]-1-oxo-2,3-dihydro-1H-isoindol-5-yl}piperidin-4-yl)methyl]-2,8-diazaspiro[4.5]decan-8-yl}-3-fluorophenyl)-1H-pyrrolo[2,3-b]pyridine-3-carbonyl]-2,4-difluorophenyl}-3-fluoropyrrolidine-1-sulfonamide]
- DC50 (BRAF V600E): < 5 nM
- Dmax (BRAF V600E): 35 to 70%
- DC50 (BRAF G466V): < 1 nM
- Dmax (BRAF G466V): 35 to 70%

SMILES: O=C1CCC(N2Cc3cc(N4CCC(CN5CC(C6CN(c7ccc(-c8cnc9[nH]cc(C(=O)c%10c(F)ccc(NS(=O)(=O)N%11CC[C@@H](F)C%11)c%10F)c9c8)cc7)C6)C5)CC4)ccc3C2=O)C(=O)N1 (stereo partly drawn) [Compound 330, (3R)-N-[3-(5-{4-[1′-({1-[2-(2,6-dioxopiperidin-3-yl)-1-oxo-2,3-dihydro-1H-isoindol-5-yl]piperidin-4-yl}methyl)-[3,3′-biazetidin]-1-yl]phenyl}-1H-pyrrolo[2,3-b]pyridine-3-carbonyl)-2,4-difluorophenyl]-3-fluoropyrrolidine-1-sulfonamide]
- DC50 (BRAF V600E): 5 to 50 nM
- Dmax (BRAF V600E): 35 to 70%
- DC50 (BRAF G466V): 1 to 10 nM
- Dmax (BRAF G466V): > 70%

SMILES: O=C1CCC(N2Cc3cc(N4CC5(CC(CN6CCc7cc(-c8cnc9[nH]cc(C(=O)c%10c(F)ccc(NS(=O)(=O)N%11CC[C@@H](F)C%11)c%10F)c9c8)ccc7C6)C5)C4)ccc3C2=O)C(=O)N1 (stereo partly drawn) [Compound 8, (3R)-N-(3-{5-[2-({2-[2-(2,6-dioxopiperidin-3-yl)-1-oxo-2,3-dihydro-1H-isoindol-5-yl]-2-azaspiro[3.3]heptan-6-yl}methyl)-1,2,3,4-tetrahydroisoquinolin-6-yl]-1H-pyrrolo[2,3-b]pyridine-3-carbonyl}-2,4-difluorophenyl)-3-fluoropyrrolidine-1-sulfonamide]
- DC50 (BRAF V600E): 5 to 50 nM
- Dmax (BRAF V600E): 35 to 70%
- DC50 (BRAF G466V): 10 to 30 nM
- Dmax (BRAF G466V): 35 to 70%

SMILES: O=C1CC[C@H](N2Cc3cc(CC[C@@H](O)CN4CC5(C4)CN(c4ccc(-c6cnc7[nH]cc(C(=O)c8c(F)ccc(NS(=O)(=O)N9CC[C@@H](F)C9)c8F)c7c6)cc4)C5)ccc3C2=O)C(=O)N1 [Compound 327, (3R)-N-{3-[5-(4-{6-[(2R)-4-{2-[(3)S-2,6-dioxopiperidin-3-yl]-1-oxo-2,3-dihydro-1H-isoindol-5-yl}-2-hydroxybutyl]-2,6-diazaspiro[3.3]heptan-2-yl}phenyl)-1H-pyrrolo[2,3-b]pyridine-3-carbonyl]-2,4-difluorophenyl}-3-fluoropyrrolidine-1-sulfonamide]
- DC50 (BRAF V600E): 5 to 50 nM
- Dmax (BRAF V600E): 35 to 70%
- DC50 (BRAF G466V): 1 to 10 nM
- Dmax (BRAF G466V): > 70%
